Data as given in article PMC2654408 (PLoS ONE, 2009).
Where “and” joins values, the source holds several entries; their conditions need not be identical. Equal entries are not always repeated. Where two headings read alike, the source gives them in different places. Where no end group is shown, it is not given here.

Experiments:
α7-nAChR [1] = target: T1, α7-nAChR (Homo sapiens, UniProt P36544); assay: biochemical; format: binding; conditions: for [125I]α-BTX binding compared with control maximum specific binding: Mean±SEM
T1 construct: host or cells: GH4-hα7 (rat pituitary tumor GH4 cells stably transfected with human α7-nAChR)
T1 sequence (P36544 23-502): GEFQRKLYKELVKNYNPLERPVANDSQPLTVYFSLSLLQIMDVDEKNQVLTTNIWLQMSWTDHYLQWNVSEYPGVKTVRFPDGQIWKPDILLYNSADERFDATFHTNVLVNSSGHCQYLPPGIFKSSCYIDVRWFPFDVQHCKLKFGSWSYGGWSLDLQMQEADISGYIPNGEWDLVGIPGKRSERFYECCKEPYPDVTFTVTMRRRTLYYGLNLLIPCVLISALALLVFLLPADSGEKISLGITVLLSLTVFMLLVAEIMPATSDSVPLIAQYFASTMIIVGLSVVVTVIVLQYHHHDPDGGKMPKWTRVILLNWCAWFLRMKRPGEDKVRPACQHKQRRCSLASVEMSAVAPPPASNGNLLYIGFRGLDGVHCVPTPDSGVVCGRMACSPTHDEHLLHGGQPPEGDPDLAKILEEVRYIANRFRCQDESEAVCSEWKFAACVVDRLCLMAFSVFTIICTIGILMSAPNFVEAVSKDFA
Protocol: (§1) For membrane binding experiments, confluent cells were scraped off 75 cm^2 culture plates into ice-cold lysis buffer (20 mM Tris-HCl, pH 7.0, 5 mM ethylenediaminetetraacetic acid (EDTA), and 1× protease inhibitor cocktail (Roche Diagnostics, Ltd.,West Sussex, UK). After pelleting by centrifugation for 10 min at 13,000 rpm, cells were resuspended in 7 ml ice-cold lysis buffer, lysed by Dounce homogenization, and then centrifuged at 1000×g for 10 min. Supernatant was removed and the extraction process repeated. The supernatants were combined and centrifuged at 50,000 rpm (70 Ti rotor) for 30 min (Beckman Ultracentrifuge). All centrifugations were carried out at 4°C. The pelleted membranes were resuspended in binding buffer (50 mM Tris-HCl, 120 mM NaCl, 5 mM KCl, 1 mM MgCl2, 2.5 mM CaCl2, pH 7.0) and protein concentration determined using the DC Protein Assay kit (Bio-Rad Laboratories, Ltd., Hemel Hempstead, UK). Binding assays were assembled on ice in borosilicate glass test tubes with 50–100 µg membrane protein in binding buffer in a final volume of 250 µl. Binding reactions were incubated at 4°C overnight, and then terminated by rapid vacuum filtration using a Brandel Cell Harvester onto Whatman GF/B glass fibre filters pre-soaked in 0.4% polyethylenimine. Saturation binding experiments were performed with [^125I]α-BTX concentrations ranging from 0.03–100 nM. Displacement binding experiments were performed with a constant [^125I]α-BTX concentration of 2.0 nM. Non-specific binding was determined with 10 µM MLA.
(§2) Ligand binding data were analyzed using GraphPad Prism 4.03 (GraphPad Software, Inc.) Saturation binding data were fitted by nonlinear regression with a hyperbolic function for a one-binding site model. Displacement binding data were fitted by nonlinear regression for a one-site binding competition model, unless otherwise noted. RT-PCR band density data was analysed using Student's t-test for comparison of individual means with control values and by one-way ANOVA followed by Tukey's multiple comparison test for comparison of test groups and effect of MLA inhibition effects.

[2] = target: human alpha-7 nicotinic acetylcholine receptor (human) (UniProt P36544)
human alpha-7 nicotinic acetylcholine receptor (human), sequence (P36544 23-502): as above

α7-nAChR [3] = target: T1, α7-nAChR; assay: Saturation binding on cell membranes after chronic 24 hr peptide treatment of GH4-hα7 cells; format: cell-based; conditions: 24 hr treatment with 100 nM peptide; read-out: Kd±SEM, receptor affinity for α-BTX
Protocol: as §1
as §2, with “Displacement binding data were fitted by nonlinear regression for a one-site binding competition model, unless otherwise noted.” left out

α7-nAChR [4] = target: T1, α7-nAChR; assay: Acute live cell [125I]α-BTX binding in GH4-hα7 cells; conditions: for efficacy in competition with [125I]α-BTX for receptor binding sites: 10 µM peptide
Protocol: Initial experiments were performed to characterize the binding parameters of the human α7-nAChR heterologously expressed in the rat GH4-hα7 cell line using a live-cell binding method. Saturation binding was carried out with [^125I]alpha-bungarotoxin ([^125I]α-BTX) concentrations ranging from 0.03 nM to 100 nM. Non-specific binding was determined in the presence of 10 µM methyllycaconitine (MLA).
For live cell binding experiments, cells were seeded into 6-well plates at a density of 1×10^5 cells/well and allowed to recover for 24–48 hours before experimentation. Cells were treated with indicated peptides or α7-nAChR ligands for 30 min at 37°C in cell medium containing 1% FBS. Then [^125I]α-bungarotoxin ([^125I]α-BTX; 150 Ci/mmol) was added and cells were incubated at 37°C for a further 1.5 hr. Cell layers were washed 3× with 2 ml serum-free DMEM, then 0.5 ml 1 M NaOH was added to each well to lyse cells. Cell lysates were transferred to 5 ml scintillation fluid and radioactivity was determined using a Beckman LS6000IC scintillation counter.
as §2

[5] = target: human alpha-7 nicotinic acetylcholine receptor (human) (UniProt P36544); assay: radioligand binding
α7-nAChR mRNA expression = assay: RT-PCR analysis of α7-nAChR mRNA expression in GH4-hα7 cells; format: cell-based, human
Protocol: To assess the effects of T-AChE C-terminal peptides on α7-nAChR mRNA expression, total cellular RNA was isolated and analysed for gene-specific expression levels using reverse transcriptase PCR. Specifics of primer design and sequences used in RT-PCR experiments are described in the methods. […] Expression of the housekeeping gene glyceraldehyde 3-phosphate dehydrogenase (GAPDH) was used as a standard for comparative analysis. RT-PCR analysis was performed in control GH4-hα7 cells and those exposed to AChE peptides at concentrations ranging from 1 nM to 1 µM for 24 hr (Fig. 5A). […] A similar high level of α7-nAChR expression was achieved after treatment with only 1 nM T30.
as §2, with “Displacement binding data were fitted by nonlinear regression for a one-site binding competition model, unless otherwise noted.” left out
Primers for RNA analysis were designed using the Primer3 program and analysed for structural anomalies and dimer formation using NetPrimer software (Premier Biosoft International, Palo Alto, USA). […]

[6] = target: T2, human alpha-7 nicotinic acetylcholine receptor (human, UniProt P36544 23-502); assay: radioligand binding; conditions: one partner purified
T2 construct: human alpha-7 nicotinic acetylcholine receptor, heterologously expressed in the rat GH4-hα7 cell line; Used on live cells and as purified membranes of the same cell line; also called α7-nAChR; CHRNA7; source: on live cells and in purified cell membranes
T2 sequence (P36544 23-502): as above

[7] = target: T2, human alpha-7 nicotinic acetylcholine …; assay: radioligand binding; conditions: one partner purified; remark: listed apart in the source
[8] = live cells, [125I]α-BTX displacement, read-out: Ki, high affinity site

Molecule: C[N+](C)(C)CCO [Choline, choline]
- decrease in specific binding efficacy in the presence of T30 compared with ligand alone (α7-nAChR [1]): 36%
- IC50 (α7-nAChR [1]; IC50±SEM): 123000 nM and 126000 nM and 225000 nM and 357000 nM and 737000 nM
- Ki (α7-nAChR [1]; Ki±SEM): 85900 nM and 88900 nM and 157000 nM and 250000 nM and 515000 nM

Molecule: AChE C-terminal peptide T14
- α7-nAChR mRNA expression by RT-PCR (relative band density against GAPDH) in GH4-hα7 cells after 24 hr with 1 nM to 1 µM T14 (relative band density) [2]: 2.72

Molecule: CC(=O)OCC[N+](C)(C)C [ACh, acetylcholine]
- decrease in specific binding efficacy in the presence of T30 compared with ligand alone (α7-nAChR [1]; membranes, ligand at its EC50, varying concentrations of T30): 18%

Molecule: NQFDHYSKQERCSDL [T15]
- Kd (α7-nAChR [3]): 4.91 ± 0.53 nM

Molecule: KAEFHRWSSYMVHWKNQFDHYSKQERCSDL [T30]
- efficacy in competition with [125I]α-BTX for receptor binding sites (α7-nAChR [4]; live cells): 70%
- Ki (α7-nAChR [4]; [8]): 0.0168 ± 0.0018 nM
- Ki (α7-nAChR [4]; live cells, two-site competition model, read-out: Ki, second lower affinity site): 47.1 ± 2.8 nM
- [125I]α-BTX binding compared with control maximum specific binding (α7-nAChR [1]; membranes, 1 µM peptide): 110.9±3.6%
- [125I]α-BTX binding compared with control maximum specific binding (α7-nAChR [1]; membranes, 10 µM peptide): 117.3±4.9%
- Kd (α7-nAChR [3]): 12 ± 1.39 nM

Molecule: [^125I]alpha-bungarotoxin [[^125I]α-BTX]
- Bmax (α7-nAChR [4]): 965.8±28.9 fmol/mg protein
- Kd (α7-nAChR [4]): 4.68 ± 0.61 nM

Molecule: AEFHRWSSYMVHWK [T14]
- efficacy in competition with [125I]α-BTX for receptor binding sites (α7-nAChR [4]; live cells): approximately 40%
- Ki (α7-nAChR [4]; [8]): 0.653 ± 0.0126 nM
- [125I]α-BTX binding compared with control maximum specific binding (α7-nAChR [1]; membranes, 1 µM peptide): 90.11±3.5%
- [125I]α-BTX binding compared with control maximum specific binding (α7-nAChR [1]; membranes, 10 µM peptide): 87.91±1.9%
- Kd (α7-nAChR [3]): 9.06 ± 0.93 nM

Molecule: AChE C-terminal peptide T30
- α7-nAChR mRNA expression by RT-PCR (relative band density against GAPDH) in GH4-hα7 cells after 24 hr with 1 nM to 1 µM T30 (relative band density) [2]: 2.98
- Ki, high affinity site [5]: 0.0168 nM
- Ki, second, lower affinity site [5]: 47.1 nM

Molecule: CCN1C[C@]2(COC(=O)c3ccccc3N3C(=O)C[C@H](C)C3=O)CC[C@H](OC)[C@@]34[C@@H]5C[C@H]6[C@H](OC)[C@@H]5[C@](O)(C[C@@H]6OC)[C@@](O)([C@@H](OC)[C@H]23)[C@@H]14 [MLA, methyllycaconitine]
- decrease in specific binding efficacy in the presence of T30 compared with ligand alone (α7-nAChR [1]): 24%
- IC50 (α7-nAChR [1]; IC50): 15.5 nM and 9.5 nM
- α7-nAChR mRNA expression, relative band density (α7-nAChR mRNA expression): 1.58±0.12

B1: T-AChE: full-length tailed isoform of acetylcholinesterase (protein)
chain: EGREDAELLVTVRGGRLRGIRLKTPGGPVSAFLGIPFAEPPMGPRRFLPPEPKQPWSGVVDATTFQSVCYQYVDTLYPGFEGTEMWNPNRELSEDCLYLNVWTPYPRPTSPTPVLVWIYGGGFYSGASSLDVYDGRFLVQAERTVLVSMNYRVGAFGFLALPGSREAPGNVGLLDQRLALQWVQENVAAFGGDPTSVTLFGESAGAASVGMHLLSPPSRGLFHRAVLQSGAPNGPWATVGMGEARRRATQLAHLVGCPPGGTGGNDTELVACLRTRPAQVLVNHEWHVLPQESVFRFSFVPVVDGDFLSDTPEALINAGDFHGLQVLVGVVKDEGSYFLVYGAPGFSKDNESLISRAEFLAGVRVGVPQVSDLAAEAVVLHYTDWLHPEDPARLREALSDVVGDHNVVCPVAQLAGRLAAQGARVYAYVFEHRASTLSWPLWMGVPHGYEIEFIFGIPLDPSRNYTAEEKIFAQRLMRYWANFARTGDPNEPRDPKAPQWPPYTAGAQQYVSLDLRPLEVRRGLRAQACAFWNRFLPKLLSATDTLDEAERQWKAEFHRWSSYMVHWKNQFDHYSKQDRCSDL
- effect on [125I]α-BTX binding to the α7-nAChR (α7-nAChR [4]; live cells, controls (Fig. 2D)): neither full-length T-AChE, nor truncated T548, had an effect
- change in α7-nAChR mRNA expression (α7-nAChR mRNA expression; 10 nM protein, 24 hr): neither the full length T-AChE molecule (p = 0.3419), nor the truncated T548 (p = 0.1778), effected a significant change

B2: [125I]alpha-bungarotoxin (ligand)
chain: IVCHTTATSPISAVTCPPGENLCYRKMWCDAFCSSRGKVVELGCAATCPSKKPYEEVTCCSTDKCNPHPKQRPG
- Kd [6]: 4.68 nM
- Kd [7]: 4.66 nM and 9.06 nM and 12 nM and 4.91 nM
